Values belong to the substance of their own block, whether it stands above or below them. Where no end group is shown, it is not given here.
Key:
Type in all cases: cell-based
[1] = test system: normal human dermal fibroblasts; assay: Ultrastructural study of caveolae in human fibroblasts; settings: 0.5 ppm (1% of stock solution at 50 ppm), 48 hours
Description: The goal of this study is to study at the ultrastructural level the caveolae in human dermal fibroblasts.
Protocol: Normal human dermal fibroblasts in culture are treated with a 1% stock solution at 50 ppm of peptide SEQ ID No. 4 for 48 hours (the medium in the presence of the active ingredient is changed every 24 hours).

[2] = test system: HMG-CoA reductase; assay: Expression of HMG-CoA reductase in normal human keratinocytes (immunofluorescence); settings: 0.5 ppm, 48 hours
Description: The goal of this study is to determine the influence of peptide SEQ ID No. 4 on the expression of HMG-CoA reductase in normal human keratinocytes.
Protocol: Normal human dermal keratinocytes in culture are treated with a 1% stock solution at 50 ppm of peptide SEQ ID No. 4 for 48 hours (the medium in the presence of the active ingredient is changed every 24 hours). The cells are then washed and fixed in cold methanol for 4 minutes at 4° C. The cells are incubated in the presence of a polyclonal rabbit antibody specific for HMG-CoA reductase (Millipore, Upstate), and then a secondary antibody coupled with a fluorescent dye. The cells are then examined by epifluorescence microscope (Nikon Eclipse E600 microscope).

[3] = test system: normal human keratinocytes; assay: Ultrastructural study of lamellar bodies in human keratinocytes (transmission electron microscopy); settings: 48 hours
Description: The goal of this study is to study in an ultrastructural manner, in transmission electron microscopy, keratinocytes treated by peptide SEQ ID No. 5 at 0.5 ppm.
Normal human keratinocytes in culture are treated with a 1% stock solution at 50 ppm of peptide SEQ ID No. 5 for 48 hours (the medium in the presence of the active ingredient is changed every 24 hours). The cells are washed in PBS, and then are fixed by Karnosky hypertonic fixation (4% paraformaldehyde, 5% glutaraldehyde in a 0.08M phosphate buffer) 1 hour at ambient temperature and then 24 hours at 4° C. The cells are detached from the support by scraping and centrifuged 5 minutes at 1000 rpm. The supernatant is eliminated and a 1M sodium cacodylate buffer is deposited on the residue. The cells are mixed with 2% agar and then postfixed by osmium tetraoxide for 1 hour. The specimens are then dehydrated by successive passages in a series of alcohol (from 50 to 100%). The cells are then coated in a resin. The polymerization is carried out for approximately 12 hours at 60° C. Semi-thin sections of 0.5 μm are made with an ultramicrotome. The sections are deposited on a heat bonded slide and then colored with toluidine blue. The slides are then dehydrated again and mounted in a suitable medium. […]

[4] = test system: normal human keratinocytes; assay: Differentiation study of human keratinocytes (pankeratin immunofluorescence); settings: 0.5 ppm, 48 hours, anti-cytopankeratin antibody, epifluorescence microscope
Description: The goal of this study is to determine the influence of peptide SEQ ID No. 5 on epidermal differentiation.
Protocol: Normal human keratinocytes in culture are treated with a 1% stock solution at 50 ppm of peptide SEQ ID No. 4 for 48 hours (the medium in the presence of the active ingredient is changed every 24 hours). The cells are then washed and fixed with cold methanol for 4 minutes at 4° C.

[5] = test system: normal human keratinocytes; assay: Protective effect on skin cells subjected to UVB radiation (MTT cellular viability); settings: 0.5 ppm, 24 hours before and 24 hours after UVB 50 mJ/cm^2, versus untreated irradiated control
Description: The goal of this study is to determine the protective effect of peptide SEQ ID No. 5 with relation to normal human keratinocytes subjected to stress by UVB radiation. To do this, cellular viability tests were conducted by the MTT technique.
Protocol: The normal human keratinocytes are treated with a 1% solution, a solution at 50 ppm of peptide SEQ ID No. 5, for 24 hours, irradiated by UVB (50 mJ/cm^2) and then cultivated again 24 hours in the presence of the same concentration of peptide SEQ ID No. 5. Untreated and irradiated controls are carried out under the same conditions. At the end of the experiment, the cells are incubated in a solution containing 0.1 mg/ml of MTT (3-[4,5-dimethylthiazol-2-yl]-2,5-diphenyltetrazolium bromide). This compound is absorbed by the living cells and then metabolized by mitochondrial enzymes into a blue violet compound, formazan, that will be assayed by spectrophotometry at 540 nm. The optical density (O.D.) Is then directly proportional to the mitochondrial enzymatic activity as well as to the number of living cells.

[6] = test system: HMG-CoA reductase; assay: Expression of HMG-CoA reductase in skin biopsies (immunolabelling); settings: 0.5 ppm applied topically on human skin samples in culture, 24 hours or 48 hours
Description: The goal of this study is to determine the influence of peptide SEQ ID No. 5 on the expression of HMG-CoA reductase.
Protocol: Samples of human skin are placed in culture at the air/liquid interface. A 1% stock solution at 50 ppm of peptide SEQ ID No. 5 is applied topically and then the samples are incubated for 24 hours or 48 hours.
These skin samples are then fixed with formaldehyde and then enclosed in paraffin. Sections of 2 to 3 μm are then made. Immunolabelling is carried out after unmasking the specific sites by microwave treatment and then incubation in trypsin. Immunolabelling is carried out by using a polyclonal rabbit antibody specific for HMG-CoA reductase (Millipore, Upstate), and then a secondary antibody, coupled with a fluorescent dye. The skin sections are then examined by epifluorescence microscope (Nikon Eclipse E600 microscope).

Substance: Arg-Gly-Lys-Ser (RGKS) [Peptide SEQ ID No. 4]
caveolae in treated cells in comparison with untreated control cells [1]: significant increase in caveolae | HMG-CoA reductase cytoplasmic immunofluorescence in treated cells [2]: more intense cytoplasmic fluorescence

HMG-CoA reductase immunofluorescence in the upper layers of the epidermis, relative to untreated control [6]: stronger fluorescence
Substance: Arg-Gly-Lys-Ser-NH2 (RGKS-NH2) [Peptide SEQ ID No. 5]
Golgi complex development / production of lamellar bodies (Odland bodies) versus control cells ([3]; 0.5 ppm (1% of stock solution at 50 ppm), transmission electron microscopy): Golgi complex is substantially more developed than in the control cells | lipid synthesis in normal human keratinocytes ([3]; 0.5 ppm, inferred from ultrastructural study): capable of inducing an increase in lipid synthesis | expression of pankeratins [4]: increases the expression of pankeratins | increase of cellular viability after UVB irradiation (MTT) [5]: 16%
